Results from patent publication US7138361B2, “Herbicidal heterocycles” (E. I. du Pont de Nemours and Company, priority 2000, dated 2006).

How the values were obtained:
Format in all cases: in vivo
Nightshade = test: Test C preemergence; details: scale 0 to 100, 0 no effect, 100 complete control
Excerpt: (§1) Seeds of plant species selected from bermudagrass (Cynodon dactylon), Surinam grass (Brachiaria decumbens), cocklebur (Xanthium strumarium), corn (Zea mays), crabgrass (Digitaria sanguinalis), woolly cupgrass (Eriochloa villosa), giant foxtail (Setaria faberii), goosegrass (Eleusine indica), johnsongrass (Sorghum halepense), kochia (Kochia scoparia), lambsquarters (Chenopodium album), morningglory (Ipomoea hederacea), yellow nutsedge (Cyperus esculentus), pigweed (Amaranthus retroflexus), common ragweed (Ambrosia elatior), soybean (Glycine max) and velvetleaf (Abutilon theophrasti) were planted and treated preemergence with test chemicals formulated in a non-phytotoxic solvent mixture which included a surfactant.
(§2) At the same time, plants selected from these crop and weed species and also winter barley (Hordeum vulgare), blackgrass (Alopecurus myosuroides), canary grass (Phalaris minor), chickweed (Stellaria media), downy brome (Bromus tectorum), green foxtail (Setaria viridis), Italian ryegrass (Lolium multiflorum), wheat (Triticum aestivum), wild oat (Avena fatua) and windgrass (Apera spica-venti) were treated with postemergence applications of some of the test chemicals formulated in the same manner. Plants ranged in height from 2 to 18 cm (1- to 4-leaf stage) for postemergence treatments. Plant species in the flooded paddy test consisted of rice (Oryza saliva), smallflower flatsedge (Cyperus difformis), duck salad (Heteranthera limosa) and barnyardgrass (Echinochloa crus-galli) grown to the 2-leaf stage for testing. Treated plants and controls were maintained in a greenhouse for 12 to 14 days, after which time all species were compared to controls and visually evaluated. Plant response ratings, summarized in Table C, are based on a scale of 0 to 100 where 0 is no effect and 100 is complete control. A dash (-) response means no test result.

[1] = tested on: Surinam grass (Brachiaria decumbens); test: Test C preemergence; details: for Plant response rating, Surinam grass: scale 0 to 100, 0 no effect, 100 complete control; for Plant response rating (0 to 100), Surinam grass: visual evaluation after 12 to 14 days
Excerpt: as §1, §2

[2] = tested on: bermudagrass (Cynodon dactylon); test: Test C preemergence; details: for Plant response rating, Bermudagrass: scale 0 to 100, 0 no effect, 100 complete control; for Plant response rating (0 to 100 where 0 is no effect and 100 is complete control), Bermudagrass: visual evaluation after 12 to 14 days
Excerpt: as §1, §2

[3] = tested on: cocklebur (Xanthium strumarium); test: Test C preemergence; details: for Plant response rating, Cocklebur: scale 0 to 100, 0 no effect, 100 complete control; for Plant response rating (0 to 100), Cocklebur: visual evaluation after 12 to 14 days
Excerpt: as §1, §2

corn (Zea mays) = test: Test C preemergence; details: for Plant response rating, Corn: scale 0 to 100, 0 no effect, 100 complete control; for Plant response rating (0 to 100), Corn: visual evaluation after 12 to 14 days
Excerpt: as §1, §2

[4] = tested on: crabgrass (Digitaria sanguinalis); test: Test C preemergence; details: for Plant response rating, Crabgrass: scale 0 to 100, 0 no effect, 100 complete control; for Plant response rating (0 to 100), Crabgrass: visual evaluation after 12 to 14 days
Excerpt: as §1, §2

[5] = tested on: giant foxtail (Setaria faberii); test: Test C preemergence; details: for Plant response rating, Foxtail, Giant: scale 0 to 100, 0 no effect, 100 complete control; for Plant response rating (0 to 100), Foxtail, Giant: visual evaluation after 12 to 14 days
Excerpt: as §1, §2

[6] = tested on: goosegrass (Eleusine indica); test: Test C preemergence; details: for Plant response rating, Goosegrass: scale 0 to 100, 0 no effect, 100 complete control; for Plant response rating (0 to 100), Goosegrass: visual evaluation after 12 to 14 days
Excerpt: as §1, §2

[7] = tested on: johnsongrass (Sorghum halepense); test: Test C preemergence; details: for Plant response rating, Johnsongrass: scale 0 to 100, 0 no effect, 100 complete control; for Plant response rating (0 to 100), Johnsongrass: visual evaluation after 12 to 14 days
Excerpt: as §1, §2

kochia (Kochia scoparia) = test: Test C preemergence; details: for Plant response rating, Kochia: scale 0 to 100, 0 no effect, 100 complete control; for Plant response rating (0 to 100), Kochia: visual evaluation after 12 to 14 days
Excerpt: as §1, §2

[8] = tested on: morningglory (Ipomoea hederacea); test: Test C preemergence; details: for Plant response rating, Morningglory: scale 0 to 100, 0 no effect, 100 complete control
Excerpt: as §1, §2

[9] = tested on: pigweed (Amaranthus retroflexus); test: Test C preemergence; details: preemergence; for Plant response rating, Pigweed: scale 0 to 100, 0 no effect, 100 complete control
Excerpt: as §1, §2

soybean (Glycine max) = test: Test C preemergence; details: preemergence; for Plant response rating, Soybean: scale 0 to 100, 0 no effect, 100 complete control
Excerpt: as §1, §2

[10] = tested on: velvetleaf (Abutilon theophrasti); test: Test C preemergence; details: preemergence; for Plant response rating, Velvetleaf: scale 0 to 100, 0 no effect, 100 complete control
Excerpt: as §1, §2

[11] = tested on: woolly cupgrass (Eriochloa villosa); test: Test C preemergence; details: for Plant response rating, Cupgrass, Woolly: scale 0 to 100, 0 no effect, 100 complete control; for Plant response rating (0 to 100), Cupgrass, Woolly: visual evaluation after 12 to 14 days
Excerpt: as §1, §2

[12] = tested on: yellow nutsedge (Cyperus esculentus); test: Test C preemergence; details: for Plant response rating, Nutsedge: scale 0 to 100, 0 no effect, 100 complete control
Excerpt: as §1, §2

[13] = tested on: barnyardgrass (Echinochloa crus-galli); test: Test C flooded paddy test; details: for Barnyardgrass plant response rating: Flooded Paddy, scale 0 to 100, 0 no effect, 100 complete control; for Plant response rating, Barnyardgrass: flooded paddy test, scale 0 to 100 (0 no effect, 100 complete control)
Procedure, shortened: (§3)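 Plants were grown to the 2-leaf stage under flooded paddy conditions and treated. They were then kept in a greenhouse for 12 to 14 days and visually rated against untreated controls on a 0–100 scale, where 0 is no effect and 100 is complete control.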

[14] = tested on: duck salad (Heteranthera limosa); test: Test C flooded paddy test; details: for Ducksalad plant response rating: Flooded Paddy, scale 0 to 100, 0 no effect, 100 complete control; for Plant response rating, Ducksalad: flooded paddy test, scale 0 to 100 (0 no effect, 100 complete control)
Procedure, shortened: as §3

[15] = tested on: smallflower flatsedge (Cyperus difformis); test: Test C flooded paddy test; details: for Flatsedge plant response rating: Flooded Paddy, scale 0 to 100, 0 no effect, 100 complete control; for Plant response rating, Flatsedge: flooded paddy test, scale 0 to 100 (0 no effect, 100 complete control)
Procedure, shortened: as §3

Sunflower = test: Test C preemergence; details: Rate 500 g/ha, visual evaluation after 12 to 14 days
[16] = preemergence, Rate 500 g/ha, visual evaluation after 12 to 14 days
[17] = Rate 500 g/ha, visual evaluation after 12 to 14 days

CC1(c2ccn(C3SCN(c4cccc(OC(F)(F)F)c4)C3=O)n2)CC1 (stereo not shown) [Compound 63]
70: Plant response rating (0 to 100), Surinam grass ([1]; preemergence, Rate 250 g/ha) | Plant response rating, Kochia (kochia (Kochia scoparia); Rate 62 g/ha) | Barnyardgrass plant response rating ([13]; Rate 250 g/ha)
30: Plant response rating, Nightshade (Nightshade; Rate 62 g/ha) | Plant response rating (0 to 100), Cocklebur ([3]; preemergence, Rate 250 g/ha) | Plant response rating (0 to 100), Cocklebur ([3]; preemergence, Rate 500 g/ha) | Plant response rating, Morningglory ([8]; preemergence, Rate 250 g/ha) | Plant response rating, Velvetleaf ([10]; Rate 250 g/ha)
0: Plant response rating, Cocklebur ([3]; Rate 62 g/ha) | Plant response rating, Cocklebur ([3]; preemergence, Rate 125 g/ha) | Plant response rating, Corn (corn (Zea mays); Rate 62 g/ha) | Plant response rating, Corn (corn (Zea mays); preemergence, Rate 125 g/ha) | Plant response rating, Johnsongrass ([7]; Rate 62 g/ha) | Plant response rating, Morningglory ([8]; Rate 62 g/ha) | Plant response rating, Soybean (soybean (Glycine max); Rate 125 g/ha) | Plant response rating, Soybean (soybean (Glycine max); Rate 250 g/ha) | Plant response rating, Velvetleaf ([10]; Rate 125 g/ha) | Plant response rating, Nutsedge ([12]; Rate 62 g/ha) | Plant response rating, Nutsedge ([12]; preemergence, Rate 125 g/ha)
20: Plant response rating, Surinam grass ([1]; Rate 62 g/ha) | Plant response rating, Surinam grass ([1]; preemergence, Rate 125 g/ha) | Plant response rating (0 to 100), Corn (corn (Zea mays); preemergence, Rate 250 g/ha) | Plant response rating, Foxtail, Giant ([5]; Rate 62 g/ha) | Plant response rating, Morningglory ([8]; preemergence, Rate 125 g/ha) | Plant response rating, Cupgrass, Woolly ([11]; Rate 62 g/ha) | Plant response rating, Nutsedge ([12]; preemergence, Rate 250 g/ha) | Plant response rating, Barnyardgrass ([13]; Rate 62 g/ha) | Plant response rating, Ducksalad ([14]; Rate 62 g/ha) | Plant response rating, Ducksalad ([14]; Rate 125 g/ha)
100: Plant response rating (0 to 100), Surinam grass ([1]; preemergence, Rate 500 g/ha) | Plant response rating, Bermudagrass ([2]; Rate 62 g/ha) | Plant response rating (0 to 100 where 0 is no effect and 100 is complete control), Bermudagrass ([2]; preemergence, Rate 250 g/ha) | Plant response rating (0 to 100 where 0 is no effect and 100 is complete control), Bermudagrass ([2]; preemergence, Rate 500 g/ha) | Plant response rating, Bermudagrass ([2]; preemergence, Rate 125 g/ha) | Plant response rating, Crabgrass ([4]; Rate 62 g/ha) | Plant response rating (0 to 100), Crabgrass ([4]; preemergence, Rate 250 g/ha) | Plant response rating (0 to 100), Crabgrass ([4]; preemergence, Rate 500 g/ha) | Plant response rating, Crabgrass ([4]; preemergence, Rate 125 g/ha) | Plant response rating (0 to 100), Foxtail, Giant ([5]; preemergence, Rate 250 g/ha) | Plant response rating (0 to 100), Foxtail, Giant ([5]; preemergence, Rate 500 g/ha) | Plant response rating, Goosegrass ([6]; Rate 62 g/ha) | Plant response rating (0 to 100), Goosegrass ([6]; preemergence, Rate 250 g/ha) | Plant response rating (0 to 100), Goosegrass ([6]; preemergence, Rate 500 g/ha) | Plant response rating, Goosegrass ([6]; preemergence, Rate 125 g/ha) | Plant response rating (0 to 100), Johnsongrass ([7]; preemergence, Rate 250 g/ha) | Plant response rating (0 to 100), Johnsongrass ([7]; preemergence, Rate 500 g/ha) | Plant response rating (0 to 100), Kochia (kochia (Kochia scoparia); preemergence, Rate 250 g/ha) | Plant response rating (0 to 100), Kochia (kochia (Kochia scoparia); preemergence, Rate 500 g/ha) | Plant response rating, Kochia (kochia (Kochia scoparia); preemergence, Rate 125 g/ha) | Plant response rating (0 to 100), Pigweed [9, 17] | Plant response rating, Pigweed ([9]; Rate 125 g/ha) | Plant response rating, Pigweed ([9]; Rate 250 g/ha) | Plant response rating (0 to 100), Cupgrass, Woolly ([11]; preemergence, Rate 500 g/ha) | Plant response rating (0 to 100), Nutsedge [12, 16] | Barnyardgrass plant response rating ([13]; Rate 500 g/ha) | Ducksalad plant response rating ([14]; Rate 500 g/ha) | Flatsedge plant response rating ([15]; Rate 250 g/ha) | Flatsedge plant response rating ([15]; Rate 500 g/ha) | Plant response rating, Flatsedge ([15]; Rate 125 g/ha)
90: Plant response rating, Foxtail, Giant ([5]; preemergence, Rate 125 g/ha) | Plant response rating, Flatsedge ([15]; Rate 62 g/ha)
50: Plant response rating (0 to 100), Velvetleaf [10, 17]
80: Ducksalad plant response rating ([14]; Rate 250 g/ha)
40: Plant response rating (0 to 100), Corn (corn (Zea mays); preemergence, Rate 500 g/ha) | Plant response rating (0 to 100), Morningglory [8, 16] | Plant response rating (0 to 100), Soybean (soybean (Glycine max); [17]) | Plant response rating, Barnyardgrass ([13]; Rate 125 g/ha)
60: Plant response rating, Nightshade (Nightshade; Rate 125 g/ha) | Plant response rating, Nightshade (Nightshade; Rate 250 g/ha) | Plant response rating, Johnsongrass ([7]; preemergence, Rate 125 g/ha) | Plant response rating (0 to 100), Cupgrass, Woolly ([11]; preemergence, Rate 250 g/ha) | Plant response rating, Cupgrass, Woolly ([11]; preemergence, Rate 125 g/ha) | Plant response rating (0 to 100), Sunflower (Sunflower)
